pEC50: −log10 of the molar value. Where a name gives a salt, the structure may show the parent alone.

Results on 34 compounds are retold here after US9481659B2, “Selective heterocyclic sphingosine 1 phosphate receptor modulators” (Celgene International II SÀRL, priority 2011, dated 2016).

This experiment concerns the target S1P1/EDG1 (Homo sapiens, UniProt P21453). The experiment is described as follows: S1P1 CRE-bla CHOK1 reporter assay, inhibition of Forskolin induced cAMP. It is filed as cell-based. To be noted: agonist activity range; S1P1 CRE-bla CHOK1 cells, 2 μM Forskolin; read-out: S1P1 ACTIVITY
The essentials:
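CRE-bla CHO K1 cells stably expressing human S1P1 were treated 4 hrs at 37° C with 10-point compound dilutions plus 2 μM Forskolin. Inhibition of cAMP-driven β-lactamase reporter was read with a FRET substrate loaded 2 hrs at room temperature.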
On the technique in general: A reporter such as luciferase makes a cellular process visible.

Chain of S1P1/EDG1 (P21453 whole entry): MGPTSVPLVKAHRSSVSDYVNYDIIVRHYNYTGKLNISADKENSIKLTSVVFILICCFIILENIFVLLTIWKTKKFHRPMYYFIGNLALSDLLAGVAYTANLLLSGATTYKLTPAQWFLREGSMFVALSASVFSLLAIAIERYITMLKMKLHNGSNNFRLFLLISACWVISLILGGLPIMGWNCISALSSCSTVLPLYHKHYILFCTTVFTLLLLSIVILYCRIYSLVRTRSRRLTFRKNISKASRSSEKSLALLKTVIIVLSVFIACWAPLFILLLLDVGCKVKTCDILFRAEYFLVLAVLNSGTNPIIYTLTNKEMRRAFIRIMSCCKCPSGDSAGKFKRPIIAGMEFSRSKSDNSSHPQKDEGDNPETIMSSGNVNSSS

As to `CC(C)Oc1ccc(-c2ncc(-c3cccc4c3CCC[C@H]4NS(N)(=O)=O)s2)cc1C#N` [Compound 277, (R)—N-(5-(2-(3-cyano-4-isopropoxyphenyl)thiazol-5-yl)-1,2,3,4-tetrahydronaphthalen-1-yl)sulfamide], the pEC50 is 9.30 to 10.30. The value for `CC(C)Oc1ccc(-c2nnc(-c3cccc4c3CCC[C@H]4NS(C)(=O)=O)s2)cc1C#N` [Compound 278, (R)—N-(5-(5-(3-cyano-4-isopropoxyphenyl)-1,3,4-thiadiazol-2-yl)-1,2,3,4-tetrahydronaphthalen-1-yl)methanesulfonamide] was 9.30 to 10.30; that for `CC(C)Oc1ccc(-c2nnc(-c3cccc4c3CCC[C@@H]4NS(C)(=O)=O)s2)cc1C#N` [Compound 279, (S)—N-(5-(5-(3 cyano-4-isopropoxyphenyl)-1,3,4-thiadiazol-2-yl)-1,2,3,4-tetrahydronaphthalen-1-yl)methanesulfonamide] was 9.30 to 10.30; that for `COCCS(=O)(=O)N[C@@H]1CCCc2c(-c3nnc(-c4ccc(OC(C)C)c(C#N)c4)s3)cccc21` [Compound 280, (R)—N-(5-(5-(3-cyano-4-isopropoxyphenyl)-1,3,4-thiadiazol-2-yl)-1,2,3,4-tetrahydronaphthalen-1-yl)-2-methoxyethanesulfonamide] was 8.30 to 9.30. The value for `COCCS(=O)(=O)N[C@H]1CCCc2c(-c3nnc(-c4ccc(OC(C)C)c(C#N)c4)s3)cccc21` [Compound 281, (S)—N-(5-(5-(3-cyano-4-isopropoxyphenyl)-1,3,4-thiadiazol-2-yl)-1,2,3,4-tetrahydronaphthalen-1-yl)-2-methoxyethanesulfonamide] was 9.30 to 10.30; that for `CC(C)Oc1ccc(-c2nnc(-c3cccc4c3CCC[C@H]4NS(=O)(=O)C3CC3)s2)cc1C#N` [Compound 282] was 8.30 to 9.30.

`CC(C)Oc1ccc(-c2nnc(-c3cccc4c3CCC[C@@H]4NS(=O)(=O)C3CC3)s2)cc1C#N` [Compound 283]: the pEC50 was 9.30 to 10.30. For `COC(=O)CS(=O)(=O)N[C@H]1CCCc2c(-c3nnc(-c4ccc(OC(C)C)c(C#N)c4)s3)cccc21` [Compound 284, (S)-methyl 2-(N-(5-(5-(3-cyano-4-isopropoxyphenyl)-1,3,4-thiadiazol-2-yl)-1,2,3,4-tetrahydronaphthalen-1-yl)sulfamoyl)acetate], the pEC50 is 8.30 to 9.30. For `COCCS(=O)(=O)N[C@@H]1CCCc2c(-c3cnc(-c4ccc(OC(C)C)c(C#N)c4)s3)cccc21` [Compound 285], the pEC50 was 8.30 to 9.30. Take `CCOC(=O)CCS(=O)(=O)N[C@H]1CCCc2c(-c3nnc(-c4ccc(OC(C)C)c(C#N)c4)s3)cccc21` [Compound 286, (S)-ethyl 3-(N-(5-(5-(3-cyano-4-isopropoxyphenyl)-1,3,4-thiadiazol-2-yl)-1,2,3,4-tetrahydronaphthalen-1-yl)sulfamoyl)propanoate]: the pEC50 was 9.30 to 10.30. The value for `CC(C)Oc1ccc(-c2nnc(-c3cccc4c3CCC[C@H]4NS(=O)(=O)CC(=O)O)s2)cc1C#N` [Compound 287, (R)-2-(N-(5-(5-(3-cyano-4-isopropoxyphenyl)-1,3,4-thiadiazol-2-yl)-1,2,3,4-tetrahydronaphthalen-1-yl)sulfamoyl)acetic acid] was 9.30 to 10.30; that for `CC(C)Oc1ccc(-c2nnc(-c3cccc4c3CCC[C@@H]4NS(=O)(=O)CC(=O)O)s2)cc1C#N` [Compound 288, (S)-2-(N-(5-(5-(3-cyano-4-isopropoxyphenyl)-1,3,4-thiadiazol-2-yl)-1,2,3,4-tetrahydronaphthalen-1-yl)sulfamoyl) acetic acid] was 9.30 to 10.30.

For the compound `CC(C)Oc1ccc(-c2nnc(-c3cccc4c3CCC[C@H]4NS(=O)(=O)CCO)s2)cc1C#N` [Compound 289, (R)—N-(5-(5-(3-cyano-4-isopropoxyphenyl)-1,3,4-thiadiazol-2-yl)-1,2,3,4-tetrahydronaphthalen-1-yl)-2-hydroxyethanesulfonamide], the pEC50 is 9.30 to 10.30. In the case of `CC(C)Oc1ccc(-c2nnc(-c3cccc4c3CCC[C@@H]4NS(=O)(=O)CCO)s2)cc1C#N` [Compound 290, (S)—N-(5-(5-(3-cyano-4-isopropoxyphenyl)-1,3,4-thiadiazol-2-yl)-1,2,3,4-tetrahydronaphthalen-1-yl)-2-hydroxyethanesulfonamide], the pEC50 was 9.30 to 10.30. The value for `CC(C)Oc1ccc(-c2nnc(-c3cccc4c3CCC[C@@H]4NS(=O)(=O)CCCO)s2)cc1C#N` [Compound 291] was 9.30 to 10.30; that for `CC(C)Oc1ccc(-c2nnc(-c3cccc4c3CCC[C@H]4NS(=O)(=O)CC(=O)N(C)C)s2)cc1C#N` [Compound 292, (R)-2-(N-(5-(5-(3-cyano-4-isopropoxyphenyl)-1,3,4-thiadiazol-2-yl)-1,2,3,4-tetrahydronaphthalen-1-yl)sulfamoyl)-N,N-dimethylacetamide] was 9.30 to 10.30.

For `CC(C)Oc1ccc(-c2nnc(-c3cccc4c3CCC[C@@H]4NS(=O)(=O)CC(=O)N(C)C)s2)cc1C#N` [Compound 293, (S)-2-(N-(5-(5-(3-cyano-4-isopropoxyphenyl)-1,3,4-thiadiazol-2-yl)-1,2,3,4-tetrahydronaphthalen-1-yl)sulfamoyl)-N,N-dimethylacetamide], the pEC50 is 9.30 to 10.30.

In the case of `CNC(=O)CS(=O)(=O)N[C@@H]1CCCc2c(-c3nnc(-c4ccc(OC(C)C)c(C#N)c4)s3)cccc21` [Compound 294], the pEC50 is 9.30 to 10.30. The value for `CNC(=O)CS(=O)(=O)N[C@H]1CCCc2c(-c3nnc(-c4ccc(OC(C)C)c(C#N)c4)s3)cccc21` [Compound 295] was 9.30 to 10.30. With `CC(C)Oc1ccc(-c2nnc(-c3cccc4c3CCC[C@H]4NCCS(C)(=O)=O)s2)cc1C#N` [Compound 296, (R)-2-isopropoxy-5-(5-(5-((2-(methylsulfonyl)ethyl)amino)-5,6,7,8-tetrahydronaphthalen-1-yl)-1,3,4-thiadiazol-2-yl)benzonitrile] the figure was 9.30 to 10.30. The value for `CC(C)Oc1ccc(-c2nnc(-c3cccc4c3CCC[C@@H]4NCCS(C)(=O)=O)s2)cc1C#N` [Compound 297, (S)-2-isopropoxy-5-(5-(5-((2-(methylsulfonyl)ethyl)amino)-5,6,7,8-tetrahydronaphthalen-1-yl)-1,3,4-thiadiazol-2-yl)benzonitrile] was 8.30 to 9.30; that for `CNC(=O)CCS(=O)(=O)N[C@H]1CCCc2c(-c3nnc(-c4ccc(OC(C)C)c(C#N)c4)s3)cccc21` [Compound 298, (S)-3-(N-(5-(5-(3-cyano-4-isopropoxyphenyl)-1,3,4-thiadiazol-2-yl)-1,2,3,4-tetrahydronaphthalen-1-yl)sulfamoyl)-N-methylpropanamide] was 9.30 to 10.30; that for `CC(C)Oc1ccc(-c2nnc(-c3cccc4c3CCC[C@H]4NCCO)s2)cc1C#N` [Compound 299, (R)-5-(5-(5-((2-hydroxyethyl)amino)-5,6,7,8-tetrahydronaphthalen-1-yl)-1,3,4-thiadiazol-2-yl)-2-isopropoxybenzonitrile] was 8.30 to 9.30.

In the case of `CC(C)Oc1ccc(-c2nnc(-c3cccc4c3CCC[C@@H]4NCCO)s2)cc1C#N` [Compound 300, (S)-5-(5-(5-((2-hydroxyethyl)amino)-5,6,7,8-tetrahydronaphthalen-1-yl)-1,3,4-thiadiazol-2-yl)-2-isopropoxybenzonitrile], the pEC50 is 9.30 to 10.30. With `CC(C)Oc1ccc(-c2nnc(-c3cccc4c3CCC[C@H]4NCC(=O)O)s2)cc1C#N` [Compound 301, (R)-2-((5-(5-(3-cyano-4-isopropoxyphenyl)-1,3,4-thiadiazol-2-yl)-1,2,3,4-tetrahydronaphthalen-1-yl)amino)acetic acid] the figure was 9.30 to 10.30; with `CC(C)Oc1ccc(-c2nnc(-c3cccc4c3CCC[C@@H]4NCC(=O)O)s2)cc1C#N` [Compound 302, (S)-2-((5-(5-(3-cyano-4-isopropoxyphenyl)-1,3,4-thiadiazol-2-yl)-1,2,3,4-tetrahydronaphthalen-1-yl)amino)acetic acid], 9.30 to 10.30. With `CC(C)Oc1ccc(-c2nnc(-c3cccc4c3CCC[C@H]4NCC(=O)N3CCCC3)s2)cc1C#N` [Compound 303, (R)-2-isopropoxy-5-(5-(5-((2-oxo-2-(pyrrolidin-1-yl)ethyl)amino)-5,6,7,8-tetrahydronaphthalen-1-yl)-1,3,4-thiadiazol-2-yl)benzonitrile] the figure was 9.30 to 10.30. The value for `CC(C)Oc1ccc(-c2nnc(-c3cccc4c3CCC[C@@H]4NCC(=O)N3CCCC3)s2)cc1C#N` [Compound 304, (S)-2-isopropoxy-5-(5-(5-((2-oxo-2-(pyrrolidin-1-yl)ethyl)amino)-5,6,7,8-tetrahydronaphthalen-1-yl)-1,3,4-thiadiazol-2-yl)benzonitrile] was 8.30 to 9.30; that for `CNC(=O)CN[C@@H]1CCCc2c(-c3nnc(-c4ccc(OC(C)C)c(C#N)c4)s3)cccc21` [Compound 305] was 9.30 to 10.30. On to `CNC(=O)CN[C@H]1CCCc2c(-c3nnc(-c4ccc(OC(C)C)c(C#N)c4)s3)cccc21` [Compound 306], for which the pEC50 is 9.30 to 10.30. For `CC(C)Oc1ccc(-c2nc(-c3cccc4c3CC[C@@H]4N)ns2)cc1C#N` [Compound 307, (S)-5-(3-(1-amino-2,3-dihydro-1H-Inden-4-yl)-1,2,4-thiadiazol-5-yl)-2-isopropoxy benzonitrile hydrochloride], the pEC50 was 8.30 to 9.30. The value for `CC(C)Oc1ccc(-c2nsc(-c3cccc4c3CC[C@@H]4N)n2)cc1C#N` [Compound 308, (S)-5-(5-(1-amino-2,3-dihydro-1H-inden-4-yl)-1,2,4-thiadiazol-3-yl)-2-isopropoxy benzonitrile hydrochloride] was 8.30 to 9.30; that for `CC(C)Oc1ccc(-c2nc(-c3cccc4c3CC[C@@H]4NS(N)(=O)=O)ns2)cc1C#N` [Compound 309, (S)—N-(4-(5-(3-cyano-4-isopropoxyphenyl)-1,2,4-thiadiazol-3-yl)-2,3-dihydro-1H-inden-1-yl) sulfamide] was 9.30 to 10.30. The value for `CC(C)Oc1ccc(-c2nsc(-c3cccc4c3CC[C@@H]4NS(N)(=O)=O)n2)cc1C#N` [Compound 310, (S)—N-(4-(3-(3-cyano-4-isopropoxyphenyl)-1,2,4-thiadiazol-5-yl)-2,3-dihydro-1H-inden-1-yl) sulfamide] was 9.30 to 10.30.
